Paper PMC4826227, “A pyrazolopyran derivative preferentially inhibits the activity of human cytosolic serine hydroxymethyltransferase and induces cell death in lung cancer cells” (Oncotarget, 2015)

Legend:
[1] = target: T1, SHMT1 (Homo sapiens, UniProt P34896); assay: Spectrophotometric quinonoid-intermediate competitive binding assay on purified recombinant SHMT1; assay type: biochemical; conditions: purified SHMT1 5.5 μM, glycine 3.0 mM, 20 μM H4PteGlu, read-out: estimated inhibition constants (IC50)
T1 construct: made in house
T1 sequence (P34896 1-483): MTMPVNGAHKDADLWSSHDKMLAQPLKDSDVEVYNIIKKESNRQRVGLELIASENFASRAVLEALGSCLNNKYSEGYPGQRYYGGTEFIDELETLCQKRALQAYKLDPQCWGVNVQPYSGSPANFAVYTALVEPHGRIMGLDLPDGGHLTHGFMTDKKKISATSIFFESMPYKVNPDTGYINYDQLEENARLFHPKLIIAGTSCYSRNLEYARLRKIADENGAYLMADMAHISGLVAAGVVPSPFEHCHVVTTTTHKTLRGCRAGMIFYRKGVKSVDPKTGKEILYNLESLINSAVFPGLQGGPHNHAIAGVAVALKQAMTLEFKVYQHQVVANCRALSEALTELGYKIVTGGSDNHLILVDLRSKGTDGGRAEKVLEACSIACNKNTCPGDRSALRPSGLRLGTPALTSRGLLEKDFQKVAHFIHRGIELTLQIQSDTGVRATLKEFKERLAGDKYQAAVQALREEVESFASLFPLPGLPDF
Protocol: (§1) Initially, compounds 2.2 and 2.12 (Figure 1) were tested on purified recombinant SHMT1 and SHMT2 isoforms using a spectrophotometric assay, in which the inhibitors and H4PteGlu compete for binding to the same site of the enzyme. Both isozymes (5.5 μM) were incubated with a saturating concentration of glycine (3.0 mM), in the presence of 20 μM H4PteGlu and a varying concentration of either compound 2.12 or 2.2. The activity of the enzyme was calculated from the spectrophotometric measurement of the quinonoid intermediate that develops when both glycine and H4PteGlu bind to SHMT [20]. […]
(§2) Figure 2 Activity inhibition on purified SHMTs by compound 2.12 The activity of cytosolic (black symbols) and mitochondrial (red symbols) SHMT isoforms was measured in the presence of increasing concentrations of compound 2.12. […]
(§3) Inhibition of SHMT activity by compound 2.12 was tested using competitive binding assays in which the antifolate competes for binding with H4PteGlu. […] Therefore, absorbance at 500 nm is proportional to the fraction of enzyme present as ternary complex. […] The effect of DMSO concentration on quinonoid development was analysed and found to be negligible up to 20% DMSO (v/v). […] After a rapid manual mixing, the absorbance change at 500 nm was measured. […]

[2] = target: T2, SHMT2 (Homo sapiens, UniProt P34897); assay: Spectrophotometric quinonoid-intermediate competitive binding assay on purified recombinant SHMT2; assay type: biochemical; conditions: purified SHMT2 5.5 μM, glycine 3.0 mM, 20 μM H4PteGlu, read-out: estimated inhibition constants (IC50)
T2 construct: made in house
T2 sequence (P34897 30-504): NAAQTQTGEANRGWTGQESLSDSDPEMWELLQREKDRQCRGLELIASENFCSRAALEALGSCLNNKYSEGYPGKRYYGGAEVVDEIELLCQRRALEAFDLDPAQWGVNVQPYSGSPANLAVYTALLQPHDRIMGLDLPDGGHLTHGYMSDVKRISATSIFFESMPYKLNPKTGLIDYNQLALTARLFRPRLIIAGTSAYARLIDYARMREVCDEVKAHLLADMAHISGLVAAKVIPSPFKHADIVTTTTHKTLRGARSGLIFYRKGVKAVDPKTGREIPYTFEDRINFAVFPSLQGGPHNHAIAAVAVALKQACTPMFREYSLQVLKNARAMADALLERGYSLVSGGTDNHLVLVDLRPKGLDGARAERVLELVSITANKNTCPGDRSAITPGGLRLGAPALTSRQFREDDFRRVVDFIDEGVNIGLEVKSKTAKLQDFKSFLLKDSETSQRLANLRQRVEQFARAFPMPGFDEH
Protocol: as §1, §2, §3

IC50 [1]: 154 ± 14.4 µM
IC50 [2]: 263 ± 48 µM
Compound: CCC1(c2ccc(F)cc2)C(C#N)=C(N)Oc2[nH]nc(C)c21 (centres unmarked) [compound 2.2]
